Source: patent publication US8772334B2, “Synergistic antimicrobial mixtures” (priority 2008, dated 2014)

How the values were obtained:
mildew = test: Outdoor exposure of wood-plastic composite panels including biocides, mildew growth (ASTM D 3274-94); design: key: 10 - No mildew growth; 9 - Very slight growth; 8 - Slight (very good); 7 - Some growth (good); 6 - Moderate growth (considered a failure); 4 - Pronounced growth; 2 - Severe growth; 0 - Very severe growth; conditions: WPC panel, Miami; for Mildew Growth 3 Months: 3 months outdoors; for Mildew Growth 6 Months: 6 months outdoors; for Mildew Growth 9 Months: 9 months outdoors; for Mildew Growth 12 Months: 12 months outdoors
Experimental: Several candidate biocides were tested in a typical WPC formulation, which is presented below in Table I.
WPC panels for evaluation were prepared by blending the above ingredients in a drum mixer for 30 to 35 minutes at 30 to 40 rpm and then processing the resulting mixture through a Tek Milacron extruder. This extruder is a twin-screw counter rotating conical unit having four temperature zones, for a total heated length of ten feet (3.0 m), and a 3.38 inch (86 mm) die at the exit. The temperature of extrusion was in the range of 340 to 350 degrees F. (171 to 177 degrees C.) and the WPC boards so produced had dimensions of about 5 feet (152 cm)×5½ inches (14 cm)×1 inch (2.5 cm). The WPC boards were subsequently cut into panels of one foot (30 cm) length.
Wood-plastic composite panels incorporating various biocides were prepared in accordance with the procedure set forth above in Example 1. The panels were evaluated for mildew growth by being exposed to the weather outdoors in Miami, Fla. for one year under a protocol publicly known as ASTM D 3274-94 of ASTM International (originally known as the American Society for Testing and Materials).
For the purposes of this evaluation, any biocide or combination of biocides which prevents moderate (or worse) mildew growth for an outdoor exposure period of at least 9 months is considered to have passed the weathering test.

[1] = system: Aspergillus niger, also known as ATCC 6275; test: MIC by spiral plater (spiral gradient endpoint) and Berenbaum FIC synergy against A. niger; type: cell-based; conditions: for MIC ppm, average of spiral plater replications: malt agar, 48 hours at 28° C., ppm of active fungicide, mean of twelve replications
From the text: A method for assessing synergy of a multi-component mixture having biologically active components is described in a technical article by M. C. Berenbaum entitled “Synergy, additivism and antagonism in immunosuppression”, which was published in the Journal of Clinical Experimental Immunology. See Clinical Exp. Immunol. 28, p. 1-18 (1977).
In the method, the dose of each agent which provides a synergistic or antagonistic effect in the overall biological effect of a mixture against a particular organism is expressed as a fraction of the dose that causes the effect when the respective agent is tested alone (hereinafter referred to as “dose of X/Xe”, “Fractional Inhibitory Concentration of agent X” or “FICX”). If the sum of the FICX's for a combination of active ingredients in a mixture is 1, the combination is additive in its effect. If the sum is less than one, the combination is synergistic. If the sum is greater than one, the combination is antagonistic. The general relationship (which may be an equality or an inequality) expressed for multi-component mixtures of biologically active components is herein designated Equation 1, as follows: […]
In order to apply the Berenbaum method to compositions of the invention, mixtures of fungicidal agents are prepared. The fungicidal activity of each of the mixtures is determined and expressed in terms of a minimum inhibitory concentration, which is just sufficient to inhibit the growth of a given microbe (hereinafter referred to “MIC”) for each of the mixtures. These MICs are subsequently used to calculate FICX for each agent X of a particular mixture. All of the FICX 's for each mixture (also known as the doses of X/Xe for the mixture) are summed, and the criteria for synergism, additivism and antagonism (as set forth above in Equation 1) are used to assess the mixture.
Minimum Inhibitory Concentrations (hereinafter referred to as “MIC”) for various mixtures of biocides were determined against spore suspensions of the fungus Aspergillus niger, also known as ATCC 6275 (hereinafter referred to as “A. niger”). […]

[2] = system: Aureobasidium pullulans, also known as ATCC 9348; test: MIC by spiral plater and Berenbaum FIC synergy against A. pullulans; type: cell-based; conditions: mean of twelve replications
[3] = 0.2 mass % biocide (0.2 mass % active)
[4] = 0.22 mass % biocide (0.22 mass % active)
[5] = 0.23 mass % biocide (0.23 mass % active)
[6] = 4.0 mass % biocide (4.0 mass % active)

Question: Which results are given for COC(=O)Nc1nc2ccccc2[nH]1 [98% BCM, methyl-N-benzimidazol-2-ylcarbamate]?
Answer: Mildew Growth 3 Months (mildew; [3]): 5; Mildew Growth 6 Months (mildew; [3]): 1; Mildew Growth 9 Months (mildew; [3]): 2; Mildew Growth 12 Months (mildew; [3]): 4

Question: With COC(=O)Nc1nc2ccccc2[nH]1 [BCM, 2-(methoxycarbonylamino)benzimidazole] as the compound, how does the MIC ([1]; Aspergillus niger, ATCC6275, pure BCM, read-out: MIC, average of values for Mixtures No. 2 and 3) read?
Answer: 2.6 µg/mL

Question: What does the source list for O=C1C2CC=CCC2C(=O)N1SC(Cl)(Cl)Cl (stereo not drawn) [Captan]?
Answer: Mildew Growth 3 Months (mildew; [4]): 9; Mildew Growth 6 Months (mildew; [4]): 1; Mildew Growth 9 Months (mildew; [4]): 2; Mildew Growth 12 Months (mildew; [4]): 4

Question: Which “Mildew Growth 3 Months” value (mildew; [3]) does the source give for N#Cc1c(Cl)c(Cl)c(Cl)c(C#N)c1Cl [Chlorothalonil] here?
Answer: 9

Question: And the “Mildew Growth 6 Months” value (mildew; [3])?
Answer: 2

Question: What about the “Mildew Growth 9 Months” value (mildew; [3]) of the same compound?
Answer: 0

Question: What about the “Mildew Growth 12 Months” value (mildew; [3]) of the same compound?
Answer: 3

Question: Which results are given for O=C1c2ccccc2C(=O)N1SC(Cl)(Cl)Cl [Folpet]?
Answer: Mildew Growth 3 Months (mildew; [5]): 10; Mildew Growth 6 Months (mildew; [5]): 2; Mildew Growth 9 Months (mildew; [5]): 0; Mildew Growth 12 Months (mildew; [5]): 0

Question: How did the “MIC ppm, average of spiral plater replications” value (“MIC ppm, average” below) [1] turn out when CCCCNC(=O)OCC#CI [IPBC, 3-iodo-2-propynyl butyl carbamate] was run?
Answer: 0.7 ppm

Question: Which “Mildew Growth 3 Months” value (mildew; [6]) does the source give for Zinc Borate [99% Zinc Borate] here?
Answer: 8

Question: And the “Mildew Growth 6 Months” value (mildew; [6])?
Answer: 2

Question: And the “Mildew Growth 9 Months” value (mildew; [6])?
Answer: 6

Question: What about the “Mildew Growth 12 Months” value (mildew; [6]) of the same compound?
Answer: 5

Question: Which “MIC ppm, average” value [2] does the source give for zinc borate [Mixture No. 4] here?
Answer: > 1000 ppm

Question: For zinc borate [ZB], which “MIC ppm, average” value [1] is on record?
Answer: 12 ppm
